Test results: publication PMC5607094 (Biochemical pharmacology, 2017)

Columns and labels:
human neutrophils [1] = assay: fMLF-induced neutrophil adhesion to T84 epithelial cells; format: cell-based; details: read-out: Adhesion PMN (+ fMLF) IC50
FPR1 [2] = target: T1, FPR1 (Homo sapiens, UniProt P21462); assay: fMLF-induced Ca2+ flux in human neutrophils; format: cell-based
T1 sequence (P21462 1-350): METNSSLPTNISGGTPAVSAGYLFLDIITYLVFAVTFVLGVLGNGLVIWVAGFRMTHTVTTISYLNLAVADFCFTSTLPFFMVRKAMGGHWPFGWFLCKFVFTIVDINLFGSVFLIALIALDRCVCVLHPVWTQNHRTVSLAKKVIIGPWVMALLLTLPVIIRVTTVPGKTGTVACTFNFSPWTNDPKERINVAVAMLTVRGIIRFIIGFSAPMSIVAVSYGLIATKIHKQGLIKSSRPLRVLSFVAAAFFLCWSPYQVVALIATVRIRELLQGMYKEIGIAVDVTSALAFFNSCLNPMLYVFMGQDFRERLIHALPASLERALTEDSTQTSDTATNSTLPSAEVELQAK

FPR1 [3] = target: T1, FPR1; assay: fMLF-induced Ca2+ mobilization in FPR1-HL60 cells; format: cell-based; details: for Activity class: Active / N.A. = no activity at highest concentration tested in Ca2+ flux assay (50 µM); for FPR1 antagonist activity: fMLF-induced Ca2+ mobilization in FPR1-HL60 cells
human neutrophils [4] = assay: fMLF-induced neutrophil chemotaxis; format: cell-based; details: read-out: Chemotaxis PMN (+ fMLF) IC50
ERK1/2 [5] = assay: ERK1/2 phosphorylation in DMSO-differentiated neutrophil-like HL60 cells; format: cell-based, human; details: for Inhibition of fMLF-induced phosphorylation of ERK1/2: DMSO-differentiated HL60 cells, 10 min pretreatment, 20 nM fMLF 5 min; for Inhibition of fMLF-induced ERK phosphorylation: cell type not stated in the sentence (Discussion)
ERK1/2 [6] = assay: ERK1/2 phosphorylation in FPR1-RBL cells; format: cell-based, rat; details: FPR1-RBL cells (Figure 5B; text prints FPR1-HL60), 20 nM fMLF
ERK1/2 [7] = assay: ERK1/2 phosphorylation in human neutrophils; format: cell-based; details: 10 min pretreatment, 10 nM fMLF
FPR2 [8] = target: T2, FPR2 (Homo sapiens, UniProt P25090); assay: Ca2+ mobilization in FPR2-HL60 cells
T2 sequence (P25090 1-351): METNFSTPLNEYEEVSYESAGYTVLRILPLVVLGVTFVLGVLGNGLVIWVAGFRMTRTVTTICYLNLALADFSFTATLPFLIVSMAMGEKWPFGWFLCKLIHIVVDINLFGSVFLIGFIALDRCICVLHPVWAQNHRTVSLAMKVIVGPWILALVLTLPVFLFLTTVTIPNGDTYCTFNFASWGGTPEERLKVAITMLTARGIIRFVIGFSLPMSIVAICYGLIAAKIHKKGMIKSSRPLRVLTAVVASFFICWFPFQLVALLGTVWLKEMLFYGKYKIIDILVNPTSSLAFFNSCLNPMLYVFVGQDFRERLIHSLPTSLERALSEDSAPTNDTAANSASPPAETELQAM

FPR2 [9] = target: T2, FPR2; assay: WKYMVM-induced Ca2+ flux in human neutrophils

For `CCCN1C(=O)C(O)=C(C(=O)c2ccccc2)C1c1cc(OC)ccc1OC` (centres unmarked) [Compound 4, 4-benzoyl-5-(2,5-dimethoxyphenyl)-3-hydroxy-1-propyl-2,5-dihydro-1H-pyrrol-2-one], the IC50 (human neutrophils [1]) was 2.9 ± 1.1 µM, the IC50 (FPR1 [2]) was 10.7 ± 2.5 µM and the Activity class (FPR1 [3]) was “Active”. The IC50 (human neutrophils [4]) was 6.3 ± 2.2 µM.
In the case of `CCCCN1C(=O)C(O)=C(C(=O)c2ccc(OC)cc2)C1c1ccc(C)cc1` (centres unmarked) [Compound 5, 1-butyl-3-hydroxy-4-(4-methoxybenzoyl)-5-(4-methylphenyl)-2,5-dihydro-1H-pyrrol-2-one], the IC50 (human neutrophils [1]) is reported as 25.8 ± 3.2 µM, the IC50 (FPR1 [2]) is reported as 26.7 ± 4.6 µM and the Activity class (FPR1 [3]) is reported as “Active”. It also gave an IC50 (human neutrophils [4]) of 21.3 ± 7.6 µM.
Work on `COc1ccccc1C1C(C(=O)c2ccc(C)cc2)=C(O)C(=O)N1CC(C)O` (centres unmarked) [Compound 6, 3-hydroxy-1-(2-hydroxypropyl)-5-(2-methoxyphenyl)-4-(4-methylbenzoyl)-2,5-dihydro-1H-pyrrol-2-one] yielded an IC50 (FPR1 [2]) of 12.4 ± 3.2 µM and an IC50 (human neutrophils [4]) of 36.3 ± 4 µM.
`CCCCCCN1C(=O)C(O)=C(C(=O)c2ccccc2)C1c1ccc(O)c(OC)c1` (centres unmarked) [Compound 14, 4-benzoyl-1-hexyl-3-hydroxy-5-(4-hydroxy-3-methoxyphenyl)-2,5-dihydro-1H-pyrrol-2-one] was tested, and the “Inhibition of fMLF-induced phosphorylation of ERK1/2” value (“Inhibition … of ERK1/2” for short) (ERK1/2 [5]) was “effectively inhibited”, the “Inhibition of fMLF-induced ERK phosphorylation” value (ERK1/2 [5]) was “inhibited” and the “Inhibition of fMLF-induced ERK1/2 phosphorylation” value (ERK1/2 [6]) was “inhibited”. The “Inhibition … of ERK1/2” value (ERK1/2 [7]) was “effectively inhibited”, the IC50 (human neutrophils [1]) was 1.6 ± 0.6 µM and the IC50 (FPR1 [2]) was 4.8 ± 0.5 µM. For the same compound, the Activity class (FPR1 [3]) was “Active” and the IC50 (human neutrophils [4]) was 4.2 ± 1.3 µM.
With `CCCCCCN1C(=O)C(O)=C(C(=O)c2ccc(C)cc2)C1c1ccc(OC)cc1OC` (centres unmarked) [Compound 15, 5-(2,4-dimethoxyphenyl)-1-hexyl-3-hydroxy-4-(4-methylbenzoyl)-2,5-dihydro-1H-pyrrol-2-one] the “Inhibition of fMLF-induced ERK phosphorylation” value (ERK1/2 [5]) was “inhibited”, the IC50 (FPR2 [8]) was 6.5 ± 0.9 µM and the IC50 (FPR1 [2]) was 3.8 ± 1.8 µM. The Activity class (FPR1 [3]) was “Active”, the “FPR1 antagonist activity” value (FPR1 [3]) was “highly active FPR1 antagonists” and the IC50 (human neutrophils [4]) was 12.8 ± 4.8 µM. The IC50 (FPR2 [9]) was 1.7 ± 0.1 µM.
With `COCCN1C(=O)C(O)=C(C(=O)c2ccccc2)C1c1cc(OC)ccc1OC` (centres unmarked) [Compound 17, 4-benzoyl-5-(2,5-dimethoxyphenyl)-3-hydroxy-1-(2-methoxyethyl)-2,5-dihydro-1H-pyrrol-2-one] the “Inhibition … of ERK1/2” value (ERK1/2 [5]) was “effectively inhibited”, the “Inhibition of fMLF-induced ERK phosphorylation” value (ERK1/2 [5]) was “inhibited” and the “Inhibition of fMLF-induced ERK1/2 phosphorylation” value (ERK1/2 [6]) was “inhibited”. The “Inhibition … of ERK1/2” value (ERK1/2 [7]) was “effectively inhibited”, the IC50 (human neutrophils [1]) was 1.1 ± 0.2 µM and the IC50 (FPR1 [2]) was 6.7 ± 0.2 µM. The Activity class (FPR1 [3]) was “Active” and the IC50 (human neutrophils [4]) was 2.2 ± 1.2 µM.
With `COCCN1C(=O)C(O)=C(C(=O)c2ccc(C)cc2)C1c1cc(OC)ccc1OC` (centres unmarked) [Compound 18, 5-(2,5-dimethoxyphenyl)-3-hydroxy-1-(2-methoxyethyl)-4-(4-methylbenzoyl)-2,5-dihydro-1H-pyrrol-2-one] the IC50 (human neutrophils [1]) was 13.3 ± 2.7 µM, the IC50 (FPR1 [2]) was 5.2 ± 1.4 µM and the Activity class (FPR1 [3]) was “Active”. The “FPR1 antagonist activity” value (FPR1 [3]) was “highly active FPR1 antagonists” and the IC50 (human neutrophils [4]) was 12.4 ± 4.2 µM.
